Data set [1] concerns the target Transient receptor potential cation channel subfamily A member 1 (Homo sapiens, UniProt O75762). Briefly: Inhibition of TRPA1 (unknown origin).
Data set [2] is described as follows: Oral bioavailability in dog. The data set is classed as ADME, organism-based, Canis lupus familiaris. The settings on record: in vivo.
Data set [3] deals with T1, Transient receptor potential cation channel subfamily V member 4 (Homo sapiens, UniProt Q9HBA0). The experiment in a line: Antagonist activity at human TRPV4 expressed in HEK293 cells assessed as inhibition of GSK634775A-induced calcium influx preincubated for 10 mins followed by GSK634775A addition by […] dye based FLIPR assay. It is filed as cell-based.
Data set [4] in a line: Clearance in iv dosed rat. The settings on record: in vivo. The data set is classed as ADME, organism-based.
The nature of data set [5]: Oral bioavailability in rat. It is filed as ADME, organism-based. The settings on record: in vivo.
The target of data set [6] is Nuclear receptor subfamily 1 group I member 2 (Homo sapiens, UniProt O75469). Briefly: Activation of PXR (unknown origin). It is filed as ADME. The settings on record: human.
Data set [7] in a line: Half life in po dosed rat. Conditions: in vivo; call rule not given here. It is filed as ADME, organism-based.
The target in data set [8] is Short transient receptor potential channel 3 (Homo sapiens, UniProt Q13507). Briefly: Inhibition of TRPC3 (unknown origin).
Data set [9] concerns the target Short transient receptor potential channel 6 (Homo sapiens, UniProt Q9Y210). The experiment in a line: Inhibition of TRPC6 (unknown origin).
The target in data set [10] is T2, Voltage-dependent L-type calcium channel subunit alpha-1C (Cavia porcellus, UniProt O35505). Briefly: Inhibition of Cav1.2 in guinea pig ventricular myocytes assessed as decrease in current amplitude at 0.1 Hz by patch clamp method. It is filed as cell-based. For orientation: The patch-clamp technique gives a direct electrical read-out from membranes.
Data set [11] deals with T3, Transient receptor potential cation channel subfamily V member 4 (Rattus norvegicus, UniProt Q9ERZ8). The experiment in a line: Antagonist activity at rat TRPV4 expressed in HEK293 cells assessed as inhibition of GSK634775A-induced calcium influx preincubated for 10 mins followed by GSK634775A addition by […] dye based FLIPR assay. It is filed as cell-based.
Data set [12] concerns the target Transient receptor potential cation channel subfamily V member 1 (Homo sapiens, UniProt Q8NER1). Briefly: Inhibition of TRPV1 (unknown origin).
Data set [13] deals with Transient receptor potential cation channel subfamily M member 8 (Homo sapiens, UniProt Q7Z2W7). The experiment in a line: Inhibition of TRPM8 (unknown origin).
The target of data set [14] is T2, Voltage-dependent L-type calcium channel subunit alpha-1C. Briefly: Inhibition of Cav1.2 in guinea pig ventricular myocytes assessed as decrease in current amplitude at 2 Hz by patch clamp method. The data set is classed as cell-based.
The nature of data set [15]: Half life in po dosed dog. Conditions: in vivo. The data set is classed as ADME, organism-based, Canis lupus familiaris.
Data set [16] is described as follows: Clearance in iv dosed dog. It is filed as ADME, organism-based, Canis lupus familiaris. The settings on record: in vivo.
In data set [17] the target is T4, Transient receptor potential cation channel subfamily V member 4 (Mus musculus, UniProt Q9EPK8). The experiment in a line: Antagonist activity at mouse TRPV4 expressed in HEK293 cells assessed as inhibition of 4alpha-PDD-induced current at holding potential of -40 mV by Whole cell patch-clamp method. The data set is classed as cell-based.
Data set [18] has as its target T3, Transient receptor potential cation channel subfamily V member 4. The experiment in a line: Antagonist activity at rat TRPV4 expressed in HEK293 cells assessed as inhibition of 4alpha-PDD-induced current at holding potential of -40 mV by Whole cell patch-clamp method. The data set is classed as cell-based.
For data set [19], the target named is T1, Transient receptor potential cation channel subfamily V member 4.
Description: Antagonist activity at human TRPV4 expressed in HEK293 cells assessed as inhibition of 4alpha-PDD-induced current at holding potential of -40 mV by Whole cell patch-clamp method
Data set [20] deals with T4, Transient receptor potential cation channel subfamily V member 4. Briefly: Antagonist activity at mouse TRPV4 expressed in HEK293 cells assessed as inhibition of 4alpha-PDD-induced intracellular calcium after 10 mins in presence of 45Ca2+ by microbeta liquid scintillation counting method. It is filed as cell-based. A general note: A change in cytosolic calcium serves as a functional read-out for many receptors and channels.

Data set [21] has as its target T3, Transient receptor potential cation channel subfamily V member 4. The experiment in a line: Antagonist activity at rat TRPV4 expressed in HEK293 cells assessed as inhibition of 4alpha-PDD-induced intracellular calcium after 10 mins in presence of 45Ca2+ by microbeta liquid scintillation counting method. The data set is classed as cell-based.

The text below walks through data of ChEMBL document CHEMBL3994677, “Discovery of GSK2193874: An Orally Active, Potent, and Selective Blocker of Transient Receptor Potential Vanilloid 4” (ACS Med Chem Lett, 2017).

The structures appear in SMILES notation.

T3 sequence (Q9ERZ8 whole entry): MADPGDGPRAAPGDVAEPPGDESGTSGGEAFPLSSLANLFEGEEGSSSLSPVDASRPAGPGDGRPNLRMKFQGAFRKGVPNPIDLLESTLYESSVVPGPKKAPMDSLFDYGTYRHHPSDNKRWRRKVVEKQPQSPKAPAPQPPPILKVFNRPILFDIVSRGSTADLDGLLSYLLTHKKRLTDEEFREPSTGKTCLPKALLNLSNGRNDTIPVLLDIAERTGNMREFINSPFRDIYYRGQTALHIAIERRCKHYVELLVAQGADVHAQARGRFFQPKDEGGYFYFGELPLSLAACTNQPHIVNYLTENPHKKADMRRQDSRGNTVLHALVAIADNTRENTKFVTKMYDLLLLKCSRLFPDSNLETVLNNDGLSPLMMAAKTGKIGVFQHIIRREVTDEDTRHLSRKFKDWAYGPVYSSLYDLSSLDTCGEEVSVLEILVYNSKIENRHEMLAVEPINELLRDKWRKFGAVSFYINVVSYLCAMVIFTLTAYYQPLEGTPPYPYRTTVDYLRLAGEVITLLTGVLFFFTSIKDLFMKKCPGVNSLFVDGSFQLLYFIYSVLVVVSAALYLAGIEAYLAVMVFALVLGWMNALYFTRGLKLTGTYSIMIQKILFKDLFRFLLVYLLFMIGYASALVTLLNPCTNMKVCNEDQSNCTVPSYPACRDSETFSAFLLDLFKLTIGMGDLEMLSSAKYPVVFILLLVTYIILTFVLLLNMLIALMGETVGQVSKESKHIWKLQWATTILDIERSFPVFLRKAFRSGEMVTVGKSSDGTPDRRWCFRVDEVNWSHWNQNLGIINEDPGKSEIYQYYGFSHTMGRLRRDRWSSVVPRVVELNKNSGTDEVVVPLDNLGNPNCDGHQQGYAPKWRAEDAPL
T4 sequence (Q9EPK8 whole entry): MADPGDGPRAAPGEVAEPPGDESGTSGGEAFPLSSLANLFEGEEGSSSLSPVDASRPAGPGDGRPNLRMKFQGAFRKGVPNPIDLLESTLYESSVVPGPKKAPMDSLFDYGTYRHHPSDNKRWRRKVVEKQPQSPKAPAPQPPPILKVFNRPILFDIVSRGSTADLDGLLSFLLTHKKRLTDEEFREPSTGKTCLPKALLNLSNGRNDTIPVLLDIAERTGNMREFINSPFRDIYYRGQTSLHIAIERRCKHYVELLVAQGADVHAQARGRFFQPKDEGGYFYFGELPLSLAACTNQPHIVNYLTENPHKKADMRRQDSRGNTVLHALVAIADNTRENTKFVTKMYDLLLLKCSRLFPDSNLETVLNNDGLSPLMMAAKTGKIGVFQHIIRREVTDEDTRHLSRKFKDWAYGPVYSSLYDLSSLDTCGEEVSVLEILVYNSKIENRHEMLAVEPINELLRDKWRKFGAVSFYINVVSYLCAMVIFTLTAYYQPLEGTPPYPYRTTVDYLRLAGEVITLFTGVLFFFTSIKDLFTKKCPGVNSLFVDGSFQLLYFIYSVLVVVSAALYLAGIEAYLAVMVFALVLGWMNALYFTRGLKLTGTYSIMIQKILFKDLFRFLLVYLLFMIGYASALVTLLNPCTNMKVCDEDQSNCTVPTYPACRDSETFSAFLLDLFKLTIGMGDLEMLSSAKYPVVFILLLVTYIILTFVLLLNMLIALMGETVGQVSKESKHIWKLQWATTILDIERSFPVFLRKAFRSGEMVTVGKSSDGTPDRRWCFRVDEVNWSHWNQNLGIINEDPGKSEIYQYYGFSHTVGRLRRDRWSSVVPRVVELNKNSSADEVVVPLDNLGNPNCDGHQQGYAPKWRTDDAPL
T2 sequence (O35505 whole entry): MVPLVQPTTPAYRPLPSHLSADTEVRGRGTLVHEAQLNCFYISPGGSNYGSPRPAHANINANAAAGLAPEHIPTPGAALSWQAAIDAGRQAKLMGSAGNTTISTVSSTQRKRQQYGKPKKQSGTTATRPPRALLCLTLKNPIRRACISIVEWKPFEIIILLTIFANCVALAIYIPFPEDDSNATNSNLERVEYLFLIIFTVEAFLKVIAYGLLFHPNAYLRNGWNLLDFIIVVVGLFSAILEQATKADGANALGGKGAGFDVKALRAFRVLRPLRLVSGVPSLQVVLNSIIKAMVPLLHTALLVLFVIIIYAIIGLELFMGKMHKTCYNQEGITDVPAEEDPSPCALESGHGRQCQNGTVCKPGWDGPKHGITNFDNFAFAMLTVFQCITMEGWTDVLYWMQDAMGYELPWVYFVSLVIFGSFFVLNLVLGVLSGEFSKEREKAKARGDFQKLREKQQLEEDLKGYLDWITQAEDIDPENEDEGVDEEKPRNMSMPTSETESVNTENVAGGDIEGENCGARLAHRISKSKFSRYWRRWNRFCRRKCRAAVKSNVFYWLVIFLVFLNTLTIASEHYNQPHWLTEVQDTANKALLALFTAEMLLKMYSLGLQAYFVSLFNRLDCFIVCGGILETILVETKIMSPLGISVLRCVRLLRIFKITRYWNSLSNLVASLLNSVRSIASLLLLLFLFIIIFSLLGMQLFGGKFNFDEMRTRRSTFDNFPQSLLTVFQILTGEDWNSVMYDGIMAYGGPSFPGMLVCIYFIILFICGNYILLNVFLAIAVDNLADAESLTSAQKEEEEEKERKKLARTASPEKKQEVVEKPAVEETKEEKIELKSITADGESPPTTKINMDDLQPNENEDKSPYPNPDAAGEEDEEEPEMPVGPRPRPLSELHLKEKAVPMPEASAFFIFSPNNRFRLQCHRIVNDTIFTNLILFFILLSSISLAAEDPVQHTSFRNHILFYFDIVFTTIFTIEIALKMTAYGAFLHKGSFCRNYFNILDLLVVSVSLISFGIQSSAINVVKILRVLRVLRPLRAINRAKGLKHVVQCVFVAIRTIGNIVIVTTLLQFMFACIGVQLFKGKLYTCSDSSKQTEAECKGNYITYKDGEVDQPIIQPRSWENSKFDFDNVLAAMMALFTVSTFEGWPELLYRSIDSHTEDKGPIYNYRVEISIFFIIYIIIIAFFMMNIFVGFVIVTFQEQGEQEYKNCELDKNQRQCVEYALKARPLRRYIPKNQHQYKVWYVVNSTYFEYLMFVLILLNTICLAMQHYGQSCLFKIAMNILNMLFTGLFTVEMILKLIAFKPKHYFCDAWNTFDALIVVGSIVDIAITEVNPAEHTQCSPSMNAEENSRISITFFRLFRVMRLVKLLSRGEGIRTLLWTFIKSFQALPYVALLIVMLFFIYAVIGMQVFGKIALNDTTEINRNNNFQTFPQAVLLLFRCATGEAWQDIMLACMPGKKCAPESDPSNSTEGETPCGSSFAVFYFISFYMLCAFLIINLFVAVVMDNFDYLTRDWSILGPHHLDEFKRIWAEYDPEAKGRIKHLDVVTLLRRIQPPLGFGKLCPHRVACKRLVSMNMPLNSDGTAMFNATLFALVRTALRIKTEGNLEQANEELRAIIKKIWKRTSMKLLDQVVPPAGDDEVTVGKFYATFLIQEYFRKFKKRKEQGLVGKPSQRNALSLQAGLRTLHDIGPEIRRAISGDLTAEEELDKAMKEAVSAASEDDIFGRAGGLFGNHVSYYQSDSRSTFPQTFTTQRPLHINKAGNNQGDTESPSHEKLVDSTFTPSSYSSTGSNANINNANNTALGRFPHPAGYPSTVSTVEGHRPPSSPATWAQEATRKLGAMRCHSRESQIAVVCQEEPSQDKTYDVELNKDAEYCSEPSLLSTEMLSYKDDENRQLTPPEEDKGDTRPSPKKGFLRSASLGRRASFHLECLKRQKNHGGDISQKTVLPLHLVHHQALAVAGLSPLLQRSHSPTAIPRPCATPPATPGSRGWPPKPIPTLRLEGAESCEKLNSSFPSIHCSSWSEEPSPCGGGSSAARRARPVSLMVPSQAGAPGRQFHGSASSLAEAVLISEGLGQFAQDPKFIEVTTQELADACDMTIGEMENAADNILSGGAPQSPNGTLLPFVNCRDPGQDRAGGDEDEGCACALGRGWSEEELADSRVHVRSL
T1 sequence (Q9HBA0 whole entry): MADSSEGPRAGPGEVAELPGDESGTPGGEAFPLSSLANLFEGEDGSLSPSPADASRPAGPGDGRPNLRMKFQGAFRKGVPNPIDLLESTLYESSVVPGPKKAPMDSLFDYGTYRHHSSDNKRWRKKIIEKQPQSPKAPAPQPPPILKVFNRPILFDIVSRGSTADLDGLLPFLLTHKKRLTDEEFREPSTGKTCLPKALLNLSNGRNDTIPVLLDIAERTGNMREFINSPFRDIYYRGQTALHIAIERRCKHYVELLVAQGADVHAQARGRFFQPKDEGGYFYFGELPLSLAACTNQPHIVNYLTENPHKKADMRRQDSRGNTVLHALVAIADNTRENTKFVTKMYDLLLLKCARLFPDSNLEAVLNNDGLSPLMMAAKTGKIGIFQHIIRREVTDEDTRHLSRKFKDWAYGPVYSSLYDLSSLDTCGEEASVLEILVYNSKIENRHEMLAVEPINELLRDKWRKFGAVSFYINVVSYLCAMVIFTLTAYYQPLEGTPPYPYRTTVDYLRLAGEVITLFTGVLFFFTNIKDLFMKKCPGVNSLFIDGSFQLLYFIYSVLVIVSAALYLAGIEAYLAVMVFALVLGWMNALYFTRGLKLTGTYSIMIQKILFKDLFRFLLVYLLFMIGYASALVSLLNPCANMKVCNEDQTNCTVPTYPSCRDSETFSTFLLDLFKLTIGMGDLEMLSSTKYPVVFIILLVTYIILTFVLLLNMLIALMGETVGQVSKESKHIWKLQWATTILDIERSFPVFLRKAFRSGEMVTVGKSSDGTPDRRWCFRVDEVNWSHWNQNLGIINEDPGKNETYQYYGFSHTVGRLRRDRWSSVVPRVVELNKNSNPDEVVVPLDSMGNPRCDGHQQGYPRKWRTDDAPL

Take `O=C(NC1(c2ccccc2)CC1)c1c(CN2CCC(N3CCCCC3)CC2)c(-c2cccc(C(F)(F)F)c2)nc2cc(Br)ccc12`: the IC50 (in general, the concentration at which inhibition is half-maximal) in data set [1] is > 25 µM; in [3], 0.04 µM; in data set [8], > 25 µM; in data set [9], > 25 µM; in data set [11] it was 0.002 µM; in data set [12], > 25 µM. Further, the IC50 in data set [13] is > 25 µM. For the same compound, the bioavailability (commonly dose-corrected exposure relative to a reference, in per cent) in [2] was found to be 53%; in data set [5] it was 31%. For the same compound, the clearance – broadly, the rate of elimination divided by the concentration – in [4] came to 7.3 mL/min/kg; in [16], 6.9 mL/min/kg. Moreover, the Activity result in data set [6] is “Not Active”. In addition, the half-life (as a rule, the time in which the quantity being followed falls by half) in [7] is 10 h; in [15], 31 h. For the same compound, the IC30 in data set [10] and in data set [14] was 10.5 µM throughout.

Take `Cc1c(C(=O)Nc2cccc(C(F)(F)F)c2)cc(-c2ccccc2)n1CCCN1CCOCC1`: the results for the 50% inhibitory concentration (IC50) in [17], in [18] and in [19] were 0.017 µM, 0.133 µM and 0.048 µM, respectively.

Regarding `CC(C)NCCN(C(C)C)S(=O)(=O)c1ccc(Cl)cc1Cl`, the IC50 was 5.9 µM in [20] and 3.2 µM in data set [21].
